What follows are compounds tested on condensate formation in cocultures of iPSC-hepatic endoderm cells, HUVECs and MSCs (assay: Inhibitory experiment against cell condensate formation using chemical substances). Settings: addition to the cocultures.
Format: cell-based, human
From the text: Hepatic endoderm cells derived from human induced pluripotent stem cells (iPSCs), umbilical cord-derived endothelial cells (HUVECs), and mesenchymal stem cells (MSCs) were labeled with distinctive fluorescent markers and cocultured on a solidified matrix gel which was already described. […] To elucidate dynamics of such condensate formation in more detail, the present inventors examined the temporal development of the position of the edge of the cell condensate (square root of cell area) and circularity by image analysis (FIG. 1b).
On each well of a 24-well plate on which PA gel planar substrate was placed or to which Matrigel coating [Matrigel (BD) either in stock solution or as a mixture with medium at 1:1 was poured at 300 μl/well and left to stand in a 37° C., 5% CO2 incubator for 10 min until it solidified] was applied, 2×10^6 cells or more of multiple types in any combination (tissues isolated from embryo or adult, or KO-HepG2, HUVEC, etc.) as mixed with 2×10^5 MSCs were seeded. In order to form small-sized cell condensates, 4×10^3 cells or more of multiple types in any combination (tissues isolated from embryo or adult, or KO-HepG2, HUVEC) were mixed with 5×10^3 or more MSCs and seeded. In either case, the cells were subsequently cultured in a 37° C. incubator for a day. After seeding, chronological observation of cell coculture was performed with a stereomicroscope or a confocal microscope.
For `c1cc(CN2CCCNCCNCCCNCC2)ccc1CN1CCCNCCNCCCNCC1` [AMD3100], the “effect on condensate formation” value was “could not hinder”. In the case of `C[C@@H](N)[C@H]1CC[C@H](C(=O)Nc2ccncc2)CC1` [Sample Y-27632], the “effect on condensate formation” value was “partially delayed”. For `Cc1ccc2c(c1)C(=O)C1(O)CCN(c3ccccc3)C1=N2` (stereo not drawn) [blebbistatin], the “effect on condensate formation” value was “completely antagonized”.

Source: patent US20170067014A1, “METHOD FOR GENERATING CELL CONDENSATE FOR SELF-ORGANIZATION” (PUBLIC UNIVERSITY CORPORATION YOKOHAMA CITY UNIVERSITY, priority 2014, published 2017)
